Measured values reported in publication PMC9120017, “Inhibition mechanism of the chloride channel TMEM16A by the pore blocker 1PBC” (Nature Communications, 2022).
Like-named read-outs stand apart in the source and are kept apart here.

Molecular target: T1, mouse TMEM16A mutant I512A (Mus musculus, UniProt Q8BHY3, I512A)
T1 construct: expressed in transfected cells; host or cells: HEK293T
T1 sequence (Q8BHY3 1-960 I512A): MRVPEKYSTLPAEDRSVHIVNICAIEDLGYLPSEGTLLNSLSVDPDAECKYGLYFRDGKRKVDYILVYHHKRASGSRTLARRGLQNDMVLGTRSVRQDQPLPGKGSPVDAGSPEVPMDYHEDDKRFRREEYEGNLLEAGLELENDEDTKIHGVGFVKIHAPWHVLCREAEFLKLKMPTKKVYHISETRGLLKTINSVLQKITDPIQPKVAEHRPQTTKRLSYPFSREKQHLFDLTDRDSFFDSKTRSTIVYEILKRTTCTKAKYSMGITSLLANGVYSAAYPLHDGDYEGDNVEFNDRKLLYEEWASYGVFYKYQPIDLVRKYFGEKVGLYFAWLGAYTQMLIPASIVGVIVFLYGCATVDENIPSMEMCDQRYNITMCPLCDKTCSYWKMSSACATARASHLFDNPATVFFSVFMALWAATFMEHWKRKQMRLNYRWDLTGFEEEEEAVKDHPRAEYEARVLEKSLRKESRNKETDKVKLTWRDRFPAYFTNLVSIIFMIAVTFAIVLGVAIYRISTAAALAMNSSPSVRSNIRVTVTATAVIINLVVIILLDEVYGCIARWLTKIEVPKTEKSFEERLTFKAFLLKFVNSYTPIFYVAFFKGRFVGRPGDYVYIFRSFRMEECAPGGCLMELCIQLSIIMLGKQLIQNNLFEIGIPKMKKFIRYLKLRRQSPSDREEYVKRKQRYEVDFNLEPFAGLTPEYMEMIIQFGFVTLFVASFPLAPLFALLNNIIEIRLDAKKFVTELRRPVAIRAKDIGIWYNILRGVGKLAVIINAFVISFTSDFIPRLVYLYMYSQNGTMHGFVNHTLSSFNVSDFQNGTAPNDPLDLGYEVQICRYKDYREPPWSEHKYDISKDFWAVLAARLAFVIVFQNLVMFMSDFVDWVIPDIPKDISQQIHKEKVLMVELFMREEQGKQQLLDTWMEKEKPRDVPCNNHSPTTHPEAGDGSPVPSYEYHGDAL
Assay: Inside-out patch recording of 1PBC block, mutant I512A
Format: cell-based
Settings: for remaining activity at 100 µM: 100 µM 1PBC
Procedure: HEK293T cells (ATCC CRL-1573) were maintained in Dulbecco’s modified Eagle’s medium (DMEM; Sigma-Aldrich) supplemented with 10 U ml^−1 penicillin, 0.1 mg ml^−1 streptomycin (Sigma-Aldrich), 2 mM L-glutamine (Sigma-Aldrich), and 10% FBS (Sigma-Aldrich) in a humidified atmosphere containing 5% CO2 at 37 °C. HEK293S GnTI^− cells (ATCC CRL-3022) were maintained in HyClone HyCell TransFx-H medium (GE Healthcare) supplemented with 10 U ml^−1 penicillin, 0.1 mg ml^−1 streptomycin, 4 mM L-glutamine, 0.15% poloxamer 188 (Sigma-Aldrich), and 1% FBS in an atmosphere containing 5% CO2 at 185 rpm at 37 °C. The ac splice variant of mouse TMEM16A (UniProt ID: Q8BHY3), mouse TMEM16B (UniProt ID: Q8CFW1), or mouse TMEM16F (UniProt ID: Q6P9J9) bearing a 3C cleavage site, a Venus YFP, a Myc tag, and a Streptavidin-binding peptide (SBP) downstream of the open reading frame in a modified pcDNA3.1 vector (Invitrogen) were used as described previously[21],[31]. Mutations were introduced using a modified QuikChange method[58] and were verified by sequencing.
HEK293T cells were transfected with 3–4 μg DNA per 6 cm Petri dish using the calcium phosphate co-precipitation method and were used within 24–96 h after transfection. Recordings were performed on inside-out patches excised from HEK293T cells expressing the construct of interest. Patch pipettes were pulled from borosilicate glass capillaries (O.D. 1.5 mm, I.D. 0.86 mm, Sutter Instrument) and were fire-polished with a microforge (Narishige) before use. Pipette resistance was typically 3–8 MΩ when filled with the recording solutions detailed below. Seal resistance was typically 4 GΩ or higher. Voltage-clamp recordings were made using Axopatch 200B, Digidata 1550, and Clampex 10.7 (Molecular Devices). Analog signals were filtered with the in-built 4-pole Bessel filter at 10 kHz and were digitized at 20 kHz. Solution exchange was achieved using a gravity-fed system through a theta glass pipette mounted on an ultra-fast piezo-driven stepper (Siskiyou). […] All recordings were performed at 20 °C.
A symmetrical ionic condition was used throughout. Stock solution with Ca^2+-EGTA contained 150 mM NaCl, 5.99 mM Ca(OH)2, 5 mM EGTA, and 10 mM HEPES at pH 7.40. Stock solution with EGTA contained 150 mM NaCl, 5 mM EGTA, and 10 mM HEPES at pH 7.40. Free Ca^2+ concentrations were adjusted by mixing the stock solutions at the required ratios calculated using the WEBMAXC program (http://web.stanford.edu/~cpatton/webmaxcS.htm). Patch pipettes were filled with the stock solution with Ca^2+-EGTA, which has a free Ca^2+ concentration of 1 mM. 1PBC (ChemBridge) stock was reconstituted in anhydrous DMSO (Sigma-Aldrich) at 100 mM and stored at −20 °C. Working solutions with 1PBC were prepared by serial dilution. Unless otherwise stated, experiments were performed at a saturating Ca^2+ concentration as shown in Supplementary Table 1 and the primary data were corrected for current rundown as described previously[21],[25].
Concentration-response relations, obtained from the ratio of the I-V plots before and after the application of the blocker, were fitted to the Hill equation,1 I/Imax=1/1+IC50/[blocker]^h where I/Imax is the normalized current responses, IC50 defines the concentration at which inhibition is at its half-maximum, and h is the Hill coefficient.

With `N#Cc1c(C(F)(F)F)cc(O)n2c1nc1ccccc12` [1PBC] as the molecule, how does the IC50 (0 mV, 2 µM Ca2+) read?
Its IC50 is 30.7 µM.

What about the remaining activity at 3 µM (3 µM 1PBC, +80 mV, saturating Ca2+ (2 µM), read-out: I/Imax) of the same molecule?
The remaining activity at 3 µM was 84.4%.

What about the remaining activity at 3 µM (3 µM 1PBC, -80 mV, saturating Ca2+ (2 µM), read-out: I/Imax) of the same molecule?
Its remaining activity at 3 µM is 94.5%.

And the remaining activity at 10 µM (10 µM 1PBC, +80 mV, saturating Ca2+ (2 µM), read-out: I/Imax)?
Its remaining activity at 10 µM is 63.3%.

What about the remaining activity at 10 µM (10 µM 1PBC, -80 mV, saturating Ca2+ (2 µM), read-out: I/Imax) of the same molecule?
Its remaining activity at 10 µM is 87.2%.

And the remaining activity at 30 µM (30 µM 1PBC, +80 mV, saturating Ca2+ (2 µM), read-out: I/Imax)?
Its remaining activity at 30 µM is 36.4%.

What about the remaining activity at 30 µM (30 µM 1PBC, -80 mV, saturating Ca2+ (2 µM), read-out: I/Imax) of the same molecule?
The remaining activity at 30 µM was 65.6%.

And the remaining activity at 100 µM (+80 mV, saturating Ca2+ (2 µM), read-out: I/Imax)?
The remaining activity at 100 µM was 14%.

What about the remaining activity at 100 µM (-80 mV, saturating Ca2+ (2 µM), read-out: I/Imax) of the same molecule?
The remaining activity at 100 µM was 36%.

What about the remaining activity at 3 µM (1PBC 3, 0 mV, read-out: fraction of unblocked current) of the same molecule?
Its remaining activity at 3 µM is 89.8%.

What about the remaining activity at 3 µM (1PBC 3, 20 mV, read-out: fraction of unblocked current) of the same molecule?
The remaining activity at 3 µM was 88.3%.

And the remaining activity at 3 µM (1PBC 3, 40 mV, read-out: fraction of unblocked current)?
Its remaining activity at 3 µM is 86.4%.

What about the remaining activity at 3 µM (1PBC 3, 60 mV, read-out: fraction of unblocked current) of the same molecule?
Its remaining activity at 3 µM is 85.9%.

What about the remaining activity at 3 µM (1PBC 3, 80 mV, read-out: fraction of unblocked current) of the same molecule?
The remaining activity at 3 µM was 84.4%.

What about the remaining activity at 3 µM (1PBC 3, 100 mV, read-out: fraction of unblocked current) of the same molecule?
The remaining activity at 3 µM was 83.9%.

And the remaining activity at 3 µM (1PBC 3, 120 mV, read-out: fraction of unblocked current)?
The remaining activity at 3 µM was 84.8%.

And the remaining activity at 3 µM (1PBC 3, 140 mV, read-out: fraction of unblocked current)?
The remaining activity at 3 µM was 86.4%.

And the remaining activity at 3 µM (1PBC 3, -20 mV, read-out: fraction of unblocked current)?
Its remaining activity at 3 µM is 91.3%.

What about the remaining activity at 3 µM (1PBC 3, -40 mV, read-out: fraction of unblocked current) of the same molecule?
The remaining activity at 3 µM was 92.6%.

And the remaining activity at 3 µM (1PBC 3, -60 mV, read-out: fraction of unblocked current)?
Its remaining activity at 3 µM is 93.3%.

And the remaining activity at 3 µM (1PBC 3, -80 mV, read-out: fraction of unblocked current)?
Its remaining activity at 3 µM is 94.5%.

What about the remaining activity at 3 µM (1PBC 3, -100 mV, read-out: fraction of unblocked current) of the same molecule?
Its remaining activity at 3 µM is 94.8%.

What about the remaining activity at 3 µM (1PBC 3, -120 mV, read-out: fraction of unblocked current) of the same molecule?
Its remaining activity at 3 µM is 95.1%.

What about the remaining activity at 3 µM (1PBC 3, -140 mV, read-out: fraction of unblocked current) of the same molecule?
The remaining activity at 3 µM was 96%.

And the remaining activity at 10 µM (1PBC 10, 0 mV, read-out: fraction of unblocked current)?
Its remaining activity at 10 µM is 76.6%.

What about the remaining activity at 10 µM (1PBC 10, 20 mV, read-out: fraction of unblocked current) of the same molecule?
Its remaining activity at 10 µM is 72.7%.

What about the remaining activity at 10 µM (1PBC 10, 40 mV, read-out: fraction of unblocked current) of the same molecule?
The remaining activity at 10 µM was 68.9%.

What about the remaining activity at 10 µM (1PBC 10, 60 mV, read-out: fraction of unblocked current) of the same molecule?
The remaining activity at 10 µM was 65.9%.

And the remaining activity at 10 µM (1PBC 10, 80 mV, read-out: fraction of unblocked current)?
The remaining activity at 10 µM was 63.3%.

And the remaining activity at 10 µM (1PBC 10, 100 mV, read-out: fraction of unblocked current)?
The remaining activity at 10 µM was 61.7%.

What about the remaining activity at 10 µM (1PBC 10, 120 mV, read-out: fraction of unblocked current) of the same molecule?
The remaining activity at 10 µM was 61.7%.

What about the remaining activity at 10 µM (1PBC 10, 140 mV, read-out: fraction of unblocked current) of the same molecule?
Its remaining activity at 10 µM is 63.1%.

What about the remaining activity at 10 µM (1PBC 10, -20 mV, read-out: fraction of unblocked current) of the same molecule?
The remaining activity at 10 µM was 80.4%.

And the remaining activity at 10 µM (1PBC 10, -40 mV, read-out: fraction of unblocked current)?
The remaining activity at 10 µM was 82.9%.

What about the remaining activity at 10 µM (1PBC 10, -60 mV, read-out: fraction of unblocked current) of the same molecule?
Its remaining activity at 10 µM is 85.2%.

What about the remaining activity at 10 µM (1PBC 10, -80 mV, read-out: fraction of unblocked current) of the same molecule?
Its remaining activity at 10 µM is 87.2%.

And the remaining activity at 10 µM (1PBC 10, -100 mV, read-out: fraction of unblocked current)?
Its remaining activity at 10 µM is 88.6%.

What about the remaining activity at 10 µM (1PBC 10, -120 mV, read-out: fraction of unblocked current) of the same molecule?
The remaining activity at 10 µM was 89%.

And the remaining activity at 10 µM (1PBC 10, -140 mV, read-out: fraction of unblocked current)?
The remaining activity at 10 µM was 89.6%.

And the remaining activity at 30 µM (1PBC 30, 0 mV, read-out: fraction of unblocked current)?
The remaining activity at 30 µM was 50.3%.

What about the remaining activity at 30 µM (1PBC 30, 20 mV, read-out: fraction of unblocked current) of the same molecule?
The remaining activity at 30 µM was 46.3%.

What about the remaining activity at 30 µM (1PBC 30, 40 mV, read-out: fraction of unblocked current) of the same molecule?
The remaining activity at 30 µM was 42.2%.

What about the remaining activity at 30 µM (1PBC 30, 60 mV, read-out: fraction of unblocked current) of the same molecule?
Its remaining activity at 30 µM is 39%.

What about the remaining activity at 30 µM (1PBC 30, 80 mV, read-out: fraction of unblocked current) of the same molecule?
Its remaining activity at 30 µM is 36.4%.

What about the remaining activity at 30 µM (1PBC 30, 100 mV, read-out: fraction of unblocked current) of the same molecule?
The remaining activity at 30 µM was 34.7%.

And the remaining activity at 30 µM (1PBC 30, 120 mV, read-out: fraction of unblocked current)?
Its remaining activity at 30 µM is 34.2%.

And the remaining activity at 30 µM (1PBC 30, 140 mV, read-out: fraction of unblocked current)?
The remaining activity at 30 µM was 35.1%.

And the remaining activity at 30 µM (1PBC 30, -20 mV, read-out: fraction of unblocked current)?
Its remaining activity at 30 µM is 54.2%.

What about the remaining activity at 30 µM (1PBC 30, -40 mV, read-out: fraction of unblocked current) of the same molecule?
The remaining activity at 30 µM was 58.4%.
